We go through 17 compounds from patent US12012392B2, “Sulfonamide carboxamide compounds” (Inflazome Limited, priority 2017, dated 2024).

In general, AUC refers to the area under the concentration-time curve, a measure of exposure. Read a high AUC as more exposure. By half-life is commonly meant how long it takes for the measured level to halve. A higher half-life goes with slow loss. Broadly, the pIC50 is the negative decadic logarithm of the IC50, by convention in mol/L. What is called Cmax is the peak of the concentration-time curve. For orientation: CL/F means the apparent clearance, not corrected for the fraction that reaches the circulation. The Tmax is the time at which the peak concentration occurs. What is called bioavailability is dose-corrected exposure relative to a reference, in per cent.

Series [1] has as its system NLRP3 inflammasome. The settings on record: limited potency, nonspecific; cited from earlier work.
The nature of series [2]: PK protocol (intravenous and oral administration). It is filed as in vivo, male Sprague Dawley rats. The settings on record: male, Sprague Dawley, plasma, rat; for Vd: read-out: Vdss.
Series [3] addresses T1, NLRP3 (Homo sapiens, UniProt Q96P20). Nature of the series: Human whole blood IL1β release assay. Format: cell-based. More on the design: Plate out 80 μl of whole blood containing 1 μg/ml of LPS; from tissue; host or cells: human whole blood from healthy donors, LPS-primed, nigericin-stimulated. The settings on record: LPS 1 μg/ml, nigericin 10 μM, IL-1β AlphaLisa, read-out: HWB IC50. In a few lines:
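Donor Li-heparin whole blood with 1 μg/ml LPS preincubated 3 h at 37 °C with compound (8-point half-log series, 10 μM top; 0.1% DMSO). Nigericin (10 μM final) added for 1 h, then supernatant IL-1β measured by AlphaLISA. IC50 from 4-parameter variable-slope fit.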

The target of series [4] is T1, NLRP3. In words: THP-1 cells pyroptosis assay. It is filed as cell-based. On the set-up: Seed THP-1 cells (25,000 cells/well) containing 1.0 μg/ml LPS; host or cells: THP-1 cells, LPS-primed, nigericin-stimulated. The settings on record: LPS 1 μg/ml, nigericin 5 μM, resazurin read-out. In a few lines:
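THP-1 cells (25,000/well) primed with 1 μg/ml LPS in serum-free RPMI, given compound (8-point half-log, 10 μM top, 0.1% DMSO) for 3 hrs, then nigericin 5 μM for 1 hr at 37° C. Viability of remaining cells read by resazurin (100 μM, 1–2 hrs) fluorescence; IC50 from 4-parameter fit.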
In general terms: Alamar Blue is a resazurin reagent that responds to reducing activity.

pIC50: −log10 of the molar value. Read-outs that look alike come from different tables or passages of the source.

T1 sequence (Q96P20 whole entry): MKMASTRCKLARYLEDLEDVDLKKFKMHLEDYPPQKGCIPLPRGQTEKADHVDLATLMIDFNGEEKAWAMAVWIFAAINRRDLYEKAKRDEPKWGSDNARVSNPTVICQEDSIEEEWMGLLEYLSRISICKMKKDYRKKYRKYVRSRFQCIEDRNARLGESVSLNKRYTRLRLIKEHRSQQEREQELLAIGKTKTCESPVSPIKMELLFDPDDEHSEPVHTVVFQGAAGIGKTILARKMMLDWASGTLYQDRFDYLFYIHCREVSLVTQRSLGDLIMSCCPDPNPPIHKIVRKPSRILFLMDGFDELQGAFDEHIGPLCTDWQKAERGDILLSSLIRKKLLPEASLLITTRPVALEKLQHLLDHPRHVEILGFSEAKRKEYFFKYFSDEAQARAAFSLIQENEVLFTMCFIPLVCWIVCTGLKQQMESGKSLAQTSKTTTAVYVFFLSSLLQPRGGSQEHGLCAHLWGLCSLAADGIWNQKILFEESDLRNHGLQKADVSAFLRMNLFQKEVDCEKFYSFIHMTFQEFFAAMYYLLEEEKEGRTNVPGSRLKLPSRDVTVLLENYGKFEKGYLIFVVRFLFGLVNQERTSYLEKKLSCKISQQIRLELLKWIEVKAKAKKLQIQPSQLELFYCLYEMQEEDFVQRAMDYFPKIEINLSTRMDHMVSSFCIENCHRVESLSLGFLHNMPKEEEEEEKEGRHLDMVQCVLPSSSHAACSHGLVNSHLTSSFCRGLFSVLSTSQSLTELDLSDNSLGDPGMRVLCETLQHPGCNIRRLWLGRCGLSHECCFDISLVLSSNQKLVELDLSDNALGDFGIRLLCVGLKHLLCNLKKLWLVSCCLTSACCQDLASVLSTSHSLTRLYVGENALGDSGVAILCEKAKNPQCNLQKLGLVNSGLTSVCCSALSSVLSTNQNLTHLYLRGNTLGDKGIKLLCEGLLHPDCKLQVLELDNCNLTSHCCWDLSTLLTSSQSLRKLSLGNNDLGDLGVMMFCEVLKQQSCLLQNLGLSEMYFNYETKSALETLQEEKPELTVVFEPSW

Regarding `O=[N+]([O-])C=Cc1ccc2c(c1)OCO2` [3,4-methylenedioxy-β-nitrostyrene], the “NLRP3 inhibition (potency in words)” value in series [1] was “weak”.
`Cn1nc(S(=O)(=O)NC(=O)Nc2c3c(cc4c2CCC4)CCC3)cc1C1(O)COC1` [Example 51, N-((1,2,3,5,6,7-Hexahydro-s-indacen-4-yl)carbamoyl)-5-(3-hydroxyoxetan-3-yl)-1-methyl-1H-pyrazole-3-sulfonamide]: in series [2] (intravenous, dose 1 mg/kg), the AUC stood at 1860 ng·h/mL, the clearance is 9 mL/min/kg, the half-life was 6.6 h and the Vd stood at 1.18 L/kg. In series [3], the pIC50 is > 6.40. Moreover, the pIC50 in series [4] is 6.80 to 7.40.
On to `O=C(Nc1c2c(cc3c1CCC3)CCC2)NS(=O)(=O)c1ccn(CC2CCCO2)n1` (stereo not shown) [Example 3, N-((1,2,3,5,6,7-Hexahydro-s-indacen-4-yl)carbamoyl)-1-((tetrahydrofuran-2-yl)methyl)-1H-pyrazole-3-sulfonamide], for which, in series [2] (intravenous, dose 1 mg/kg), the AUC amounted to 3680 ng·h/mL, the clearance came to 4.5 mL/min/kg, the half-life is 6.7 h and the Vd is 1.57 L/kg. The pIC50 in series [3] is 5.80 to 6.10. The pIC50 in series [4] is 6.80 to 7.40.
Take `COCCN(C)C(=O)c1cc(S(=O)(=O)NC(=O)Nc2c3c(cc4c2CCC4)CCC3)nn1C` [Example 73, 3-(N-((1,2,3,5,6,7-Hexahydro-s-indacen-4-yl)carbamoyl)sulfamoyl)-N-(2-methoxyethyl)-N,1-dimethyl-1H-pyrazole-5-carboxamide]: in series [2] (intravenous, dose 1 mg/kg), the AUC was found to be 1160 ng·h/mL, the clearance was 14.4 mL/min/kg, the half-life was 2.9 h and the Vd was 2.24 L/kg. Besides, in series [2] (oral, dose 3 mg/kg), the AUC amounted to 2420 ng·h/mL and the Cmax turned out to be 701 ng/mL. For the same compound, the pIC50 in series [3] was 6.10 to 6.40. Moreover, in series [4], the pIC50 is 6.80 to 7.40.
For `CCn1nc(S(=O)(=O)NC(=O)Nc2c3c(cc4c2CCC4)CCC3)cc1C1(O)COC1` [Example 46, 1-Ethyl-N-((1,2,3,5,6,7-hexahydro-s-indacen-4-yl)carbamoyl)-5-(3-hydroxyoxetan-3-yl)-1H-pyrazole-3-sulfonamide], in series [2] (intravenous, dose 1.42 mg/kg), the AUC was found to be 2380 ng·h/mL, the clearance was determined as 10 mL/min/kg, the half-life was 1.6 h and the Vd was 0.56 L/kg. Moreover, the pIC50 in series [3] is > 6.40. Besides, the pIC50 in series [4] was > 7.40.
`C[C@@H](O)Cn1ccc(S(=O)(=O)NC(=O)Nc2c3c(cc4c2CCC4)CCC3)n1` [Example 16, (R)—N-((1,2,3,5,6,7-Hexahydro-s-indacen-4-yl)carbamoyl)-1-(2-hydroxypropyl)-1H-pyrazole-3-sulfonamide]: in series [2] (intravenous, dose 1 mg/kg), the AUC stood at 10200 ng·h/mL, the clearance was 1.8 mL/min/kg, the half-life was 3.8 h and the Vd was determined as 0.41 L/kg. Also, in series [2] (oral, dose 3 mg/kg), the AUC was found to be 19600 ng·h/mL, the CL/F stood at 2.6 mL/min/kg, the highest level (Cmax) was 3960 ng/mL and the Tmax was determined as 0.83 h. Moreover, in series [2] (oral, dose 3 mg/kg), the bioavailability is 63.8% and the half-life was 3.2 h. In series [3], the pIC50 was 6.10 to 6.40. Also, in series [4], the pIC50 is 6.80 to 7.40.
Turning to `COC1(c2cc(S(=O)(=O)NC(=O)Nc3c4c(cc5c3CCC5)CCC4)nn2C)CCOC1` (stereo not shown) [Example 48, N-((1,2,3,5,6,7-Hexahydro-s-indacen-4-yl)carbamoyl)-5-(3-methoxytetrahydrofuran-3-yl)-1-methyl-1H-pyrazole-3-sulfonamide], in series [2] (intravenous, dose 1 mg/kg), the AUC is 948 ng·h/mL, the clearance came to 17.6 mL/min/kg, the half-life was 2.9 h and the Vd came out at 1.74 L/kg. For the same compound, the pIC50 in series [3] was > 6.40. The pIC50 in series [4] was > 7.40.
`CCn1nc(S(=O)(=O)NC(=O)Nc2c3c(cc4c2CCC4)CCC3)cc1C1(OC)COC1` [Example 45, 1-Ethyl-N-((1,2,3,5,6,7-hexahydro-s-indacen-4-yl)carbamoyl)-5-(3-methoxyoxetan-3-yl)-1H-pyrazole-3-sulfonamide]: in series [2] (intravenous, dose 2.99 mg/kg), the AUC came to 2320 ng·h/mL, the clearance amounted to 21.6 mL/min/kg, the half-life is 0.8 h and the Vd stood at 1.11 L/kg. In addition, the pIC50 in series [3] is > 6.40. In series [4], the pIC50 was > 7.40.
Turning to `COC1(c2cc(S(=O)(=O)NC(=O)Nc3c4c(cc5c3CCC5)CCC4)nn2C(C)C)COC1` [Example 42, N-((1,2,3,5,6,7-Hexahydro-s-indacen-4-yl)carbamoyl)-1-isopropyl-5-(3-methoxyoxetan-3-yl)-1H-pyrazole-3-sulfonamide], in series [2] (intravenous, dose 1 mg/kg), the AUC amounted to 2960 ng·h/mL, the clearance turned out to be 5.6 mL/min/kg, the half-life was 0.7 h and the Vd was found to be 0.24 L/kg. Besides, in series [3], the pIC50 is > 6.40. Further, the negative logarithm of the IC50 (pIC50) in series [4] was > 7.40.
Regarding `C[C@H](CO)n1ccc(S(=O)(=O)NC(=O)Nc2c3c(cc4c2CCC4)CCC3)n1` [Example 13, (R)—N-((1,2,3,5,6,7-Hexahydro-s-indacen-4-yl)carbamoyl)-1-(1-hydroxypropan-2-yl)-1H-pyrazole-3-sulfonamide], in series [2] (intravenous, dose 1 mg/kg), the AUC came out at 38700 ng·h/mL, the clearance was 0.4 mL/min/kg, the half-life is 3.6 h and the Vd was determined as 0.09 L/kg. Further, the pIC50 in series [3] was > 6.40. For the same compound, the pIC50 in series [4] was 6.19 to 6.80.
As to `CC(O)C(C)n1ccc(S(=O)(=O)NC(=O)Nc2c3c(cc4c2CCC4)CCC3)n1` (racemic) [Example 23, N-((1,2,3,5,6,7-Hexahydro-s-indacen-4-yl)carbamoyl)-1-(3-hydroxybutan-2-yl)-1H-pyrazole-3-sulfonamide], in series [2] (intravenous, dose 1 mg/kg), the AUC is 20100 ng·h/mL, the clearance was 0.8 mL/min/kg, the half-life was 2.6 h and the Vd was 0.12 L/kg. Also, in series [3], the pIC50 is > 6.40. The pIC50 in series [4] was 6.80 to 7.40.
On to `COCCN(CCOC)C(=O)c1cc(S(=O)(=O)NC(=O)Nc2c3c(cc4c2CCC4)CCC3)nn1C` [Example 72, 3-(N-((1,2,3,5,6,7-Hexahydro-s-indacen-4-yl)carbamoyl)sulfamoyl)-N,N-bis(2-methoxyethyl)-1-methyl-1H-pyrazole-5-carboxamide], for which, in series [2] (intravenous, dose 2.88 mg/kg), the AUC worked out at 330 ng·h/mL, the clearance came out at 149 mL/min/kg, the half-life was 0.2 h and the Vd was determined as 1.84 L/kg. In addition, the pIC50 in series [3] was 6.10 to 6.40. Also, the pIC50 in series [4] is 6.80 to 7.40.
On to `CC(C)(O)Cn1ccc(S(=O)(=O)NC(=O)Nc2c3c(cc4c2CCC4)CCC3)n1` [Example 10, N-((1,2,3,5,6,7-Hexahydro-s-indacen-4-yl)carbamoyl)-1-(2-hydroxy-2-methylpropyl)-1H-pyrazole-3-sulfonamide], for which, in series [2] (intravenous, dose 1 mg/kg), the AUC is 4290 ng·h/mL, the clearance was found to be 3.9 mL/min/kg, the half-life is 2.9 h and the Vd stood at 0.61 L/kg. Moreover, in series [2] (oral, dose 3 mg/kg), the AUC was determined as 9660 ng·h/mL, the CL/F turned out to be 5.2 mL/min/kg, the maximum concentration (Cmax) was 1770 ng/mL and the time of peak concentration (Tmax) turned out to be 0.29 h. In series [2] (oral, dose 3 mg/kg), this compound gave a bioavailability of 75% and a half-life of 3.5 h. In addition, the pIC50 in series [3] was 6.10 to 6.40. Besides, in series [4], the pIC50 was 6.80 to 7.40.
With `COC1(c2cc(S(=O)(=O)NC(=O)Nc3c4c(cc5c3CCC5)CCC4)nn2C)COC1` [Example 53, N-((1,2,3,5,6,7-Hexahydro-s-indacen-4-yl)carbamoyl)-5-(3-methoxyoxetan-3-yl)-1-methyl-1H-pyrazole-3-sulfonamide], in series [2] (intravenous, dose 1 mg/kg), the AUC amounted to 1280 ng·h/mL, the clearance stood at 13.3 mL/min/kg, the half-life is 11.5 h and the Vd came out at 3.48 L/kg. In series [3], the pIC50 is > 6.40. Moreover, the pIC50 in series [4] is > 7.40.
Consider `COCCn1ccc(S(=O)(=O)NC(=O)Nc2c3c(cc4c2CCC4)CCC3)n1` [Example 2, N-((1,2,3,5,6,7-Hexahydro-s-indacen-4-yl)carbamoyl)-1-(2-methoxyethyl)-1H-pyrazole-3-sulfonamide], for which, in series [2] (intravenous, dose 1 mg/kg), the AUC worked out at 1030 ng·h/mL, the clearance came to 16.2 mL/min/kg, the half-life is 0.3 h and the Vd was determined as 0.3 L/kg. The pIC50 in series [3] was 5.80 to 6.10. Moreover, in series [4], the pIC50 was 6.19 to 6.80.
On to `O=C(Nc1c2c(cc3c1CCC3)CCC2)NS(=O)(=O)c1ccn(C2(CO)CCC2)n1` [Example 24, N-((1,2,3,5,6,7-Hexahydro-s-indacen-4-yl)carbamoyl)-1-(1-(hydroxymethyl)cyclobutyl)-1H-pyrazole-3-sulfonamide], for which, in series [2] (intravenous, dose 1 mg/kg), the AUC worked out at 7030 ng·h/mL, the clearance is 2.4 mL/min/kg, the half-life is 3.5 h and the Vd amounted to 0.37 L/kg. Besides, the pIC50 in series [3] was > 6.40. The pIC50 in series [4] is 6.80 to 7.40.
As to `C[S+](C)[O-]` [dimethyl sulfoxide (DMSO), dimethyl sulfoxide], the “NLRP3 inhibition (potency in words)” value in series [1] was “weak”.
